The text below walks through data of patent EP0057998B1, “Alicyclic compounds, their production and use” (Takeda Chemical Industries, Ltd., priority 1981, dated 1982).

In experiment [1] the target is Angiotensin I Converting Enzyme (ACE) (Homo sapiens, UniProt P12821). As to the kind of experiment: Inhibition of Angiotensin I Converting Enzyme (ACE), HHL substrate, hippuric acid colorimetry (modified Cushman method). It counts as biochemical. The settings on record: 37°C for one hour, pH 8.3, read-out: Inhibitory Activity on ACE (%); for inhibition at 1 µM: Concentration 1 μM; for inhibition at 10 µM: Concentration 10 μM. The method, then: Inhibitions of Angiotensin I Converting Enzyme (ACE) by the Compounds of this Invention. The experiment was conducted in accordance with a modification of the method described by Cushman et al. [Biochemical Pharmacology, Vol. 20, 1637 (1971)]. That is, using hippuryl-L-histidyl-L-leucine (HHL) as the substrate, the ACE inhibitory activity was determined in terms of percent inhibition of the amount of hippuric acid produced by ACE when the present compound was added. A solution of the compound of the present invention dissolved in a 0.02 to 0.5% dimethyl sulfoxide-1 00 mM potassium phosphate buffer solution (pH 8.3, containing 300 mM sodium chloride) was added to 100 µl of ACE (protein concentration, 20 mg/ml) and 100 µl of -1.25 mM HHL. In this experiment, a potassium phosphate buffer solution containing dimethyl sulfoxide at a concentration equal to that of the test solution was used as a control. After incubating the solution at 37°C for one hour, 150 µl of 1 N hydrochloric acid was added to the solution to terminate the reaction. After 1 ml of ethyl acetate was added, the solution was centrifuged at 3000 r.p.m. for 10 minutes. A 0.5 ml aliquot was separated from the ethyl acetate layer and dried at a temperature below 50°C under nitrogen gas streams. The residue was mixed with 5 ml of 1 M aqueous sodium chloride and the mixture was subjected to colorimetry at a wavelength of 228 nm.
Chain of Angiotensin I Converting Enzyme (ACE) (P12821 30-1306, species assumed): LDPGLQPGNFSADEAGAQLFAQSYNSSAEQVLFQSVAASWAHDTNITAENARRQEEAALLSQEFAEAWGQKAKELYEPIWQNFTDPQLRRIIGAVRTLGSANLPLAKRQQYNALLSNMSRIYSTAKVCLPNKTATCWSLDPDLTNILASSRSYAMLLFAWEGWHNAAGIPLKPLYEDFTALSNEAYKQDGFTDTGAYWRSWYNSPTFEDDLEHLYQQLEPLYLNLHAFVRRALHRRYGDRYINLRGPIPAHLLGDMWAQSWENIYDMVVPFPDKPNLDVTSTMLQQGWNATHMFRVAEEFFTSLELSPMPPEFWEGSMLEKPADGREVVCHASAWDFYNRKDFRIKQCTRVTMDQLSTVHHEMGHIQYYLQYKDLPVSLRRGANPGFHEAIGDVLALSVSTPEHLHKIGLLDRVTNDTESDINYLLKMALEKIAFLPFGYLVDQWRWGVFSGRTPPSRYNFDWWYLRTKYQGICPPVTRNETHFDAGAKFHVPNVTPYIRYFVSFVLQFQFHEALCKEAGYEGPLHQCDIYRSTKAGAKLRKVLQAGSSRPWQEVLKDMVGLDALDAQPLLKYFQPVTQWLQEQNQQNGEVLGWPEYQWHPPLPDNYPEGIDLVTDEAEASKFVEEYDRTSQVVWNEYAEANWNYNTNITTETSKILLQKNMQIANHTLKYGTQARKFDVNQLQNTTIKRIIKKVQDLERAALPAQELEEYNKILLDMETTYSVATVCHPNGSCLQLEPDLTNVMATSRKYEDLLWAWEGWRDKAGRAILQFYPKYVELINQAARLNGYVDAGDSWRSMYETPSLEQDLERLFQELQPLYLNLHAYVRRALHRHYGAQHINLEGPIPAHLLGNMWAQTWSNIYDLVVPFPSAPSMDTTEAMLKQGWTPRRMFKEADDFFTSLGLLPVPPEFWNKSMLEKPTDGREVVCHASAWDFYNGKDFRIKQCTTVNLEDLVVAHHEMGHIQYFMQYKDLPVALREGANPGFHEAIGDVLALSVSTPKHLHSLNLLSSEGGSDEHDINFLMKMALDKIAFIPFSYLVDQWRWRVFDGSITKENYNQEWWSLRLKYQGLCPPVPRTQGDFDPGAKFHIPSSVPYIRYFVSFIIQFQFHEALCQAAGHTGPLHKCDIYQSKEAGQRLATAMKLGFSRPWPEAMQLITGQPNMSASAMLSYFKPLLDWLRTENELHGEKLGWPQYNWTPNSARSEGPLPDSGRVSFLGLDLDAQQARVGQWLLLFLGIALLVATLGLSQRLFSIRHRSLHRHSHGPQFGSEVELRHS

Experiment [2] relates to Hypertensive Reaction by Angiotensin I. As to the kind of experiment: Effect against hypertensive activity of angiotensin I in rats after oral administration. Format: in vivo, Male rats (Sprague-Dawley). The settings on record: 13.8 µM/kg orally, angiotensin I 300 ng/kg i.v., corrected by angiotensin II reaction; for Percent Inhibition (%) against Hypertensive Reaction by Angiotensin I After 20 min.: 20 min after administration; for Percent Inhibition (%) against Hypertensive Reaction by Angiotensin I After 60 min.: 60 min after administration; for Percent Inhibition (%) against Hypertensive Reaction by Angiotensin I After 120 min.: 120 min after administration. The method, then:
Effect of Present Compounds against Hypertensive Activity of Angiotensin I. Male rats (Sprague-Dawley) weighing 250 g to 350 g which were fed under free access to drinking water and feeds were used as experimental animals. The rats were anesthetized with intraperitoneal administration of pentobarbital sodium (50 mg/kg) on the day before the test day and a polyethylene tube was inserted into each of the femoral artery for measurement of blood pressure and the femoral vein for injection of angiotensin I and II, and then the tubes were fixed. […] Then, 13.8 µM/kg of the compound of this invention was administered orally as an aqueous solution or an aqueous gum arabic suspension, and 20, 60 and 120 minutes after the administration, angiotensin I and II were injected repeatedly to trace hypertensive reactions. In calculating the percent inhibition to the hypertensive activity of angiotensin I, the percent inhibitory value was corrected based on the variation with time in the hypertensive reaction by angiotensin II.

Molecules are shown by their SMILES. Where a name gives a salt, the structure may show the parent alone.

Take `CCOC(=O)C(CCc1ccccc1)N[C@@H](C)C(=O)N(CC(=O)O)C1CCCC1.Cl` (stereo partly drawn) [Example 1, N-(1-ethoxycarbonyl-3-phenylpropyl)-L-alanyl-N-cyclopentylglycine hydrochloride]: in experiment [1], the inhibition at 1 µM came out at 84% and the inhibition at 10 µM stood at 96%. Also, in experiment [2], the “Percent Inhibition (%) against Hypertensive Reaction by Angiotensin I After 20 min.” value was 92%, the “Percent Inhibition (%) against Hypertensive Reaction by Angiotensin I After 60 min.” value was 82% and the “Percent Inhibition (%) against Hypertensive Reaction by Angiotensin I After 120 min.” value amounted to 82%.

For the compound `CCOC(=O)C(CCc1ccccc1)N[C@@H](C)C(=O)N(CC(=O)O)C1CCCCC1.Cl` (stereo partly drawn) [Example 2, N-(1-ethoxycarbonyl-3-phenylpropyl)-L-alanyl-N-cyclohexylglycine hydrochloride], in experiment [1], the inhibition at 1 µM amounted to 64% and the inhibition at 10 µM was 90%. Besides, in experiment [2], the “Percent Inhibition (%) against Hypertensive Reaction by Angiotensin I After 20 min.” value is 82%, the “Percent Inhibition (%) against Hypertensive Reaction by Angiotensin I After 60 min.” value turned out to be 82% and the “Percent Inhibition (%) against Hypertensive Reaction by Angiotensin I After 120 min.” value turned out to be 77%.

As to `CCCCOC(=O)C(CCc1ccccc1)N[C@@H](C)C(=O)N(CC(=O)O)C1CCCCCC1` (stereo partly drawn) [Example 7, N-(1-butoxycarbonyl-3-phenylpropyl)-L-alanyl-N-cycloheptylglycine hydrochloride], in experiment [1], the inhibition at 1 µM was determined as 88% and the inhibition at 10 µM stood at 98%.

As for `CCCCOC(=O)[C@H](CCc1ccccc1)N[C@@H](C)C(=O)N(CC(=O)O)C1CCCC1.Cl` [Example 12, N-[1-(S)-butoxycarbonyl-3-phenylpropyl]-L-alanyl-N-cyclopentylglycine hydrochloride], in experiment [2], the “Percent Inhibition (%) against Hypertensive Reaction by Angiotensin I After 20 min.” value was 95%, the “Percent Inhibition (%) against Hypertensive Reaction by Angiotensin I After 60 min.” value was 85% and the “Percent Inhibition (%) against Hypertensive Reaction by Angiotensin I After 120 min.” value is recorded as 76%.

In the case of `C[C@H](NC(CCc1ccccc1)C(=O)O)C(=O)N(CC(=O)O)C1CCCC1` (stereo partly drawn) [Example 13, N-(1-carboxy-3-phenylpropyl)-L-alanyl-N-cyclopentylglycine], in experiment [1], the inhibition at 1 µM stood at 93% and the inhibition at 10 µM stood at 100%. Besides, in experiment [2], the “Percent Inhibition (%) against Hypertensive Reaction by Angiotensin I After 20 min.” value was found to be 58%, the “Percent Inhibition (%) against Hypertensive Reaction by Angiotensin I After 60 min.” value turned out to be 64% and the “Percent Inhibition (%) against Hypertensive Reaction by Angiotensin I After 120 min.” value came out at 62%.

Turning to `CCOC(=O)C(CCc1ccccc1)NC(C)C(=O)N(CC(=O)O)C1CC2CCC1C2` [Example 17, N-[1-(2)-ethoxycarbonyl-3-phenylpropyl]-L-alanyl-N-(2-exonorbornyl)glycine hydrobromide], in experiment [1], the inhibition at 1 µM worked out at 78% and the inhibition at 10 µM was 99%.

Turning to `CCOC(=O)C(CCc1ccccc1)N[C@@H](C)C(=O)N(CC(=O)O)C1C2CC3CC(C2)CC1C3` (stereo partly drawn) [Example 19, N-(1-ethoxycarbonyl-3-phenylpropyl)-L-alanyl-N-(2-adamantyl)glycine hydrobromide], in experiment [1], the inhibition at 1 µM came to 73% and the inhibition at 10 µM is 93%.
